Experimental data taken from ChEMBL document CHEMBL2062477, “Dual-Specificity Phosphatase CDC25A/B Inhibitor Identified from a Focused Library with Nonelectrophilic Core Structure” (ACS Med Chem Lett, 2012).

target: T1, M-phase inducer phosphatase 1 (Homo sapiens, UniProt P30304); test: Inhibition of CDC25A; settings: not given
T1 sequence (P30304 whole entry): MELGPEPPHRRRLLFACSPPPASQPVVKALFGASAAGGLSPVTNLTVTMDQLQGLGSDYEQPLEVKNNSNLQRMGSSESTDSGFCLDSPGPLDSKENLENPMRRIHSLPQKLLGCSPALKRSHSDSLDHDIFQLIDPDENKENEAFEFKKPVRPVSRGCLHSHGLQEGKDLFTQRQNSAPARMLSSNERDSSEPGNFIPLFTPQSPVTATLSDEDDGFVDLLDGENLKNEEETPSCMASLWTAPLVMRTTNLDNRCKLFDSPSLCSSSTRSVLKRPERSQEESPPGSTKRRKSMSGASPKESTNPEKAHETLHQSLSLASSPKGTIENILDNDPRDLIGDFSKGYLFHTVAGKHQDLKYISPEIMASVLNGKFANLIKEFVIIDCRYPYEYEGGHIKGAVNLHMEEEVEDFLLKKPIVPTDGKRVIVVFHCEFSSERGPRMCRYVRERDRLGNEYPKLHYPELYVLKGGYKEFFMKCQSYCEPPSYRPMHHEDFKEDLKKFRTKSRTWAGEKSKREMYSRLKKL

| IC50 [µM] | Structure (SMILES) |
| --- | --- |
| 12.7 | CCCCCCCCCCCCCCCC(NCc1ccccc1C)=C1C(=O)OC(CO)C1=O (mixture of isomers) |
| > 100 | CCCCCCCCCCCCCCCC(NCc1cccc(Cl)c1)=C1C(=O)OC(CO)C1=O (mixture of isomers) |
| 6.22 | CCCCCCCCCCCCCCCC(NCc1cccc(F)c1)=C1C(=O)OC(CO)C1=O (mixture of isomers) |

target: T2, M-phase inducer phosphatase 2 (Homo sapiens, UniProt P30305); test: Inhibition of CDC25B; settings: not given
T2 sequence (P30305 whole entry): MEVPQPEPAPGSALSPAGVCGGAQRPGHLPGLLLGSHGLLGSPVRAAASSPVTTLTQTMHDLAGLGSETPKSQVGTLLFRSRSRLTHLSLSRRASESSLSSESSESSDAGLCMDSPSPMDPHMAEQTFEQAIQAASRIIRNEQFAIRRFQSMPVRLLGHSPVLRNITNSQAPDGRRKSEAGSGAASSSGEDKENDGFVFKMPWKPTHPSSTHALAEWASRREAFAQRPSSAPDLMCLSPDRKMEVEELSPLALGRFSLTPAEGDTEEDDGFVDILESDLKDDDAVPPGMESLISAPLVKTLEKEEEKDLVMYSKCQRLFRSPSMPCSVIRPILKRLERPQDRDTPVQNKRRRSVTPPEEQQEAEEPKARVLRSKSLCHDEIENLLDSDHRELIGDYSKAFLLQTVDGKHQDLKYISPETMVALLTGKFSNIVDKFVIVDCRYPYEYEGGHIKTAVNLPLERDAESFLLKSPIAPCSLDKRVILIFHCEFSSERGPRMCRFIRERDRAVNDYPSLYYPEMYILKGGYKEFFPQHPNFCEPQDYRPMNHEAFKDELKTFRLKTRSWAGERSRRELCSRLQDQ

| IC50 [µM] | Structure (SMILES) |
| --- | --- |
| 8.61 | CCCCCCCCCCCCCCCC(NCc1ccccc1C)=C1C(=O)OC(CO)C1=O (mixture of isomers) |
| > 100 | CCCCCCCCCCCCCCCC(NCc1cccc(Cl)c1)=C1C(=O)OC(CO)C1=O (mixture of isomers) |
| 5.13 | CCCCCCCCCCCCCCCC(NCc1cccc(F)c1)=C1C(=O)OC(CO)C1=O (mixture of isomers) |

target: T3, M-phase inducer phosphatase 3 (Homo sapiens, UniProt P30307); test: Inhibition of CDC25C; settings: not given
T3 sequence (P30307 whole entry): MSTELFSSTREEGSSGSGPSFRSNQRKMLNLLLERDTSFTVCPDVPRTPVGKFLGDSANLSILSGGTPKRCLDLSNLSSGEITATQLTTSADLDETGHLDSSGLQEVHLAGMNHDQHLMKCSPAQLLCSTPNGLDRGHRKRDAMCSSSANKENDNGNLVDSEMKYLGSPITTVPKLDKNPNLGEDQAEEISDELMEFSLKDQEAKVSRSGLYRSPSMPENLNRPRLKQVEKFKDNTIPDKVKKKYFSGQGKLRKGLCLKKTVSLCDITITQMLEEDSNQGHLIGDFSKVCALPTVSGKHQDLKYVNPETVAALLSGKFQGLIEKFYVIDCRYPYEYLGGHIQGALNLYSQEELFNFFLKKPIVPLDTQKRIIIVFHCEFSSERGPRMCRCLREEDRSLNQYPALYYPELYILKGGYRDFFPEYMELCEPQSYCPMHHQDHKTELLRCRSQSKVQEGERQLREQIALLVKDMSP

| IC50 [µM] | Structure (SMILES) |
| --- | --- |
| > 100 | CCCCCCCCCCCCCCCC(NCc1ccccc1C)=C1C(=O)OC(CO)C1=O (mixture of isomers) |
| > 100 | CCCCCCCCCCCCCCCC(NCc1cccc(Cl)c1)=C1C(=O)OC(CO)C1=O (mixture of isomers) |
| 78.2 | CCCCCCCCCCCCCCCC(NCc1cccc(F)c1)=C1C(=O)OC(CO)C1=O (mixture of isomers) |

target: Dual specificity protein phosphatase 3 (Homo sapiens, UniProt P51452); test: Inhibition of VHR; settings: not given
Sequence (P51452 whole entry): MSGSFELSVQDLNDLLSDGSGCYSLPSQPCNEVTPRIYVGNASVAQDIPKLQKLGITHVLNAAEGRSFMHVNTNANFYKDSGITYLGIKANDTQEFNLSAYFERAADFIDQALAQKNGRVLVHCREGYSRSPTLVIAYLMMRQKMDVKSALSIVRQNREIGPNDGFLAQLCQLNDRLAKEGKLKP

| IC50 [µM] | Structure (SMILES) |
| --- | --- |
| 8.99 | CCCCCCCCCCCCCCCC(NCc1ccccc1C)=C1C(=O)OC(CO)C1=O (mixture of isomers) |
| 1.43 | CCCCCCCCCCCCCCCC(NCc1cccc(Cl)c1)=C1C(=O)OC(CO)C1=O (mixture of isomers) |
| 4.69 | CCCCCCCCCCCCCCCC(NCc1cccc(F)c1)=C1C(=O)OC(CO)C1=O (mixture of isomers) |

target: T4, Dual specificity protein phosphatase 1 (Homo sapiens, UniProt P28562); test: Inhibition of MKP1; settings: not given
T4 sequence (P28562 whole entry): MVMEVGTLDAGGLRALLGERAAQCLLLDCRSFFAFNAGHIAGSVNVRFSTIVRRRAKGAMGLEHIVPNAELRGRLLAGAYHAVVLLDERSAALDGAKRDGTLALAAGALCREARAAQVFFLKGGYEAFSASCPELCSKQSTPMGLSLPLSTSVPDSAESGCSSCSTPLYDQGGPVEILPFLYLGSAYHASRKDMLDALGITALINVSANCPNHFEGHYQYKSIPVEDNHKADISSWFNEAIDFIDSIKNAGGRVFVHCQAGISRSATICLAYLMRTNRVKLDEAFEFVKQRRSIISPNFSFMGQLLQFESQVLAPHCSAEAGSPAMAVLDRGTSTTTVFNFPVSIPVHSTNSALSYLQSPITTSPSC

| IC50 [µM] | Structure (SMILES) |
| --- | --- |
| > 100 | CCCCCCCCCCCCCCCC(NCc1ccccc1C)=C1C(=O)OC(CO)C1=O (mixture of isomers) |
| > 100 | CCCCCCCCCCCCCCCC(NCc1cccc(Cl)c1)=C1C(=O)OC(CO)C1=O (mixture of isomers) |
| > 100 | CCCCCCCCCCCCCCCC(NCc1cccc(F)c1)=C1C(=O)OC(CO)C1=O (mixture of isomers) |

target: T5, Dual specificity protein phosphatase 6 (Homo sapiens, UniProt Q16828); test: Inhibition of MKP3; settings: not given
T5 sequence (Q16828 whole entry): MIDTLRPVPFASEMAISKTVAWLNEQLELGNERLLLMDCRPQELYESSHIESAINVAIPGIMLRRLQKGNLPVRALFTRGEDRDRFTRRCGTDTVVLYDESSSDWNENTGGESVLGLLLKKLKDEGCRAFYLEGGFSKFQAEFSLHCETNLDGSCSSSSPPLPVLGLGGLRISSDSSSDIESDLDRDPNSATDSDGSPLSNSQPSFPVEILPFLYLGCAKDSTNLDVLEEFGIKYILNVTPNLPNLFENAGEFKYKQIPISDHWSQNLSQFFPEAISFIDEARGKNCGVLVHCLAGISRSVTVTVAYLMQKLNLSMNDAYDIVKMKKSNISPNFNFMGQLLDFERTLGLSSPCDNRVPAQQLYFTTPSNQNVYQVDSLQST

| IC50 [µM] | Structure (SMILES) |
| --- | --- |
| > 100 | CCCCCCCCCCCCCCCC(NCc1ccccc1C)=C1C(=O)OC(CO)C1=O (mixture of isomers) |
| > 100 | CCCCCCCCCCCCCCCC(NCc1cccc(Cl)c1)=C1C(=O)OC(CO)C1=O (mixture of isomers) |
| > 100 | CCCCCCCCCCCCCCCC(NCc1cccc(F)c1)=C1C(=O)OC(CO)C1=O (mixture of isomers) |

target: T6, Tyrosine-protein phosphatase non-receptor type 1 (Homo sapiens, UniProt P18031); test: Inhibition of PTP1B; settings: not given
T6 sequence (P18031 whole entry): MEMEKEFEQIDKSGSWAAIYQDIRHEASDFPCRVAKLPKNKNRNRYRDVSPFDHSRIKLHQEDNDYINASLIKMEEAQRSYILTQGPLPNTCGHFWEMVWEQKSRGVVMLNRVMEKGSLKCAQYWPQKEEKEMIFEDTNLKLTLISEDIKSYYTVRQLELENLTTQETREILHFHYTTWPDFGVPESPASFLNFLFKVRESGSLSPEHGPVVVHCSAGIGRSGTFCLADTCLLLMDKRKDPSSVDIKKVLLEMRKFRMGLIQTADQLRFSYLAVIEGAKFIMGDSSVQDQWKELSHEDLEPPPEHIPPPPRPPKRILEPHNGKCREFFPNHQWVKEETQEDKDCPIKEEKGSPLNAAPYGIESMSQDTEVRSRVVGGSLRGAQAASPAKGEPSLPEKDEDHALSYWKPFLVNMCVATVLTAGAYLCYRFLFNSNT

| IC50 [µM] | Structure (SMILES) |
| --- | --- |
| > 100 | CCCCCCCCCCCCCCCC(NCc1ccccc1C)=C1C(=O)OC(CO)C1=O (mixture of isomers) |
| > 100 | CCCCCCCCCCCCCCCC(NCc1cccc(Cl)c1)=C1C(=O)OC(CO)C1=O (mixture of isomers) |
| 83.7 | CCCCCCCCCCCCCCCC(NCc1cccc(F)c1)=C1C(=O)OC(CO)C1=O (mixture of isomers) |

system: HL-60; test: cells; settings: Homo sapiens, HL-60, 48 h

| IC50 [µM] | Structure (SMILES) |
| --- | --- |
| 12 | CCCCCCCCCCCCCCCC(NCc1cccc(Cl)c1)=C1C(=O)OC(CO)C1=O (mixture of isomers) |
